Test: xn = mol fraction of the nth substance listed
Settings: Liquid, Pycnometric method

COC(=O)OC [dimethyl carbonate] + O=C=O
Settings	mass density [kg/m3]
313.15 K, 12790 kPa, x1 = 0.1484	951
313.15 K, 12900 kPa, x1 = 0.0242	816
313.15 K, 12950 kPa, x1 = 0.0481	856
313.15 K, 13250 kPa, x1 = 0.118	940
313.15 K, 13270 kPa, x1 = 0.0242	823
313.15 K, 13310 kPa, x1 = 0.1484	955
313.15 K, 13450 kPa, x1 = 0.0481	863
313.15 K, 13580 kPa, x1 = 0.086	911
313.15 K, 13640 kPa, x1 = 0.0242	828
313.15 K, 13730 kPa, x1 = 0.118	943
313.15 K, 13790 kPa, x1 = 0.1484	957
313.15 K, 13960 kPa, x1 = 0.0242	833
313.15 K, 13980 kPa, x1 = 0.0481	869
313.15 K, 14120 kPa, x1 = 0.086	915
313.15 K, 14140 kPa, x1 = 0.0242	836
313.15 K, 14270 kPa, x1 = 0.118	947
313.15 K, 14430 kPa, x1 = 0.1484	961
313.15 K, 14560 kPa, x1 = 0.0242	842
313.15 K, 14620 kPa, x1 = 0.0481	877
313.15 K, 14750 kPa, x1 = 0.086	920
313.15 K, 14950 kPa, x1 = 0.0242	847
313.15 K, 15100 kPa, x1 = 0.1484	965
313.15 K, 15210 kPa, x1 = 0.0481	882
313.15 K, 15220 kPa, x1 = 0.068	924
313.15 K, 15230 kPa, x1 = 0.0242	851
313.15 K, 15650 kPa, x1 = 0.1484	968
313.15 K, 15900 kPa, x1 = 0.0481	890
313.15 K, 15930 kPa, x1 = 0.068	930
313.15 K, 16400 kPa, x1 = 0.068	933
313.15 K, 16470 kPa, x1 = 0.1484	972
317.85 K, 8660 kPa, x1 = 0.0242	476
317.85 K, 8710 kPa, x1 = 0.0242	485
317.85 K, 8720 kPa, x1 = 0.0242	490
317.85 K, 8750 kPa, x1 = 0.0242	498
317.85 K, 8780 kPa, x1 = 0.0242	506
317.85 K, 8820 kPa, x1 = 0.0242	517
317.85 K, 8880 kPa, x1 = 0.0242	529
317.85 K, 8930 kPa, x1 = 0.0242	542
317.85 K, 9000 kPa, x1 = 0.0242	555
317.85 K, 9070 kPa, x1 = 0.0242	569
317.85 K, 9150 kPa, x1 = 0.0242	583
317.85 K, 9250 kPa, x1 = 0.0242	599
317.85 K, 9350 kPa, x1 = 0.0242	611
317.85 K, 9500 kPa, x1 = 0.0242	628
317.85 K, 9710 kPa, x1 = 0.0242	646
317.85 K, 9910 kPa, x1 = 0.0242	663
318.15 K, 7340 kPa, x1 = 0.1484	884
318.15 K, 7630 kPa, x1 = 0.118	856
318.15 K, 7820 kPa, x1 = 0.1484	889
318.15 K, 7850 kPa, x1 = 0.118	859
318.15 K, 8020 kPa, x1 = 0.086	802
318.15 K, 8190 kPa, x1 = 0.118	864
318.15 K, 8270 kPa, x1 = 0.1484	894
318.15 K, 8410 kPa, x1 = 0.086	812
318.15 K, 8550 kPa, x1 = 0.0481	683
318.15 K, 8610 kPa, x1 = 0.118	870
318.15 K, 8700 kPa, x1 = 0.0481	693
318.15 K, 8780 kPa, x1 = 0.1484	899
318.15 K, 8830 kPa, x1 = 0.086	820
318.15 K, 8880 kPa, x1 = 0.0481	706
318.15 K, 9130 kPa, x1 = 0.118	876
318.15 K, 9140 kPa, x1 = 0.0481	721
318.15 K, 9160 kPa, x1 = 0.086	827
318.15 K, 9300 kPa, x1 = 0.1484	904
318.15 K, 9450 kPa, x1 = 0.0481	735
318.15 K, 9580 kPa, x1 = 0.118	882
318.15 K, 9760 kPa, x1 = 0.0481	748
318.15 K, 9800 kPa, x1 = 0.1484	908
318.15 K, 9810 kPa, x1 = 0.086	838
318.15 K, 10180 kPa, x1 = 0.118	889
318.15 K, 10200 kPa, x1 = 0.0481	758
318.15 K, 10260 kPa, x1 = 0.086	845
318.15 K, 10270 kPa, x1 = 0.1484	912
318.15 K, 10720 kPa, x1 = 0.1484	916
318.15 K, 10740 kPa, x1 = 0.0481	777
318.15 K, 10750 kPa, x1 = 0.118	895
318.15 K, 10820 kPa, x1 = 0.086	853
318.15 K, 11190 kPa, x1 = 0.086	858
318.15 K, 11230 kPa, x1 = 0.1484	920
318.15 K, 11250 kPa, x1 = 0.0481	789
318.15 K, 11280 kPa, x1 = 0.118	900
318.15 K, 11720 kPa, x1 = 0.1484	924
318.15 K, 11740 kPa, x1 = 0.086	865
318.15 K, 11770 kPa, x1 = 0.0481	800
318.15 K, 11800 kPa, x1 = 0.118	905
318.15 K, 12230 kPa, x1 = 0.086	871
318.15 K, 12240 kPa, x1 = 0.0481	809
318.15 K, 12260 kPa, x1 = 0.1484	928
318.15 K, 12280 kPa, x1 = 0.118	909
318.15 K, 12690 kPa, x1 = 0.086	876
318.15 K, 12720 kPa, x1 = 0.0481	818
318.15 K, 12770 kPa, x1 = 0.118	913
318.15 K, 12820 kPa, x1 = 0.1484	932
318.15 K, 13270 kPa, x1 = 0.086	882
318.15 K, 13280 kPa, x1 = 0.0481	826
318.15 K, 13290 kPa, x1 = 0.118	918
318.15 K, 13410 kPa, x1 = 0.1484	936
318.15 K, 13730 kPa, x1 = 0.0481	833
318.15 K, 13750 kPa, x1 = 0.118	922
318.15 K, 13840 kPa, x1 = 0.086	888
318.15 K, 13900 kPa, x1 = 0.1484	939
318.15 K, 14240 kPa, x1 = 0.0481	841
318.15 K, 14240 kPa, x1 = 0.118	925
318.15 K, 14290 kPa, x1 = 0.086	893
318.15 K, 14390 kPa, x1 = 0.1484	942
318.15 K, 14710 kPa, x1 = 0.0481	847
318.15 K, 14720 kPa, x1 = 0.118	929
318.15 K, 14830 kPa, x1 = 0.086	898
318.15 K, 15140 kPa, x1 = 0.1484	947
318.15 K, 15250 kPa, x1 = 0.118	933
318.15 K, 15280 kPa, x1 = 0.086	902
318.15 K, 15300 kPa, x1 = 0.0481	854
318.15 K, 15760 kPa, x1 = 0.086	906
318.15 K, 15770 kPa, x1 = 0.1484	950
318.15 K, 15820 kPa, x1 = 0.118	937
318.15 K, 16250 kPa, x1 = 0.0481	865
318.15 K, 16260 kPa, x1 = 0.118	940
318.15 K, 16300 kPa, x1 = 0.086	910
318.15 K, 16420 kPa, x1 = 0.1484	955
323.15 K, 7960 kPa, x1 = 0.1484	862
323.15 K, 8290 kPa, x1 = 0.118	829
323.15 K, 8310 kPa, x1 = 0.1484	866
323.15 K, 8540 kPa, x1 = 0.118	833
323.15 K, 8690 kPa, x1 = 0.086	762
323.15 K, 8770 kPa, x1 = 0.1484	872
323.15 K, 8880 kPa, x1 = 0.086	769
323.15 K, 8960 kPa, x1 = 0.118	840
323.15 K, 9020 kPa, x1 = 0.0242	394
323.15 K, 9080 kPa, x1 = 0.0242	401
323.15 K, 9120 kPa, x1 = 0.0242	408
323.15 K, 9170 kPa, x1 = 0.0242	417
323.15 K, 9180 kPa, x1 = 0.0481	607
323.15 K, 9220 kPa, x1 = 0.086	779
323.15 K, 9230 kPa, x1 = 0.0242	427
323.15 K, 9250 kPa, x1 = 0.1484	877
323.15 K, 9260 kPa, x1 = 0.0481	617
323.15 K, 9280 kPa, x1 = 0.0242	436
323.15 K, 9310 kPa, x1 = 0.118	845
323.15 K, 9350 kPa, x1 = 0.0242	447
323.15 K, 9410 kPa, x1 = 0.0242	458
323.15 K, 9410 kPa, x1 = 0.0481	638
323.15 K, 9480 kPa, x1 = 0.0242	470
323.15 K, 9550 kPa, x1 = 0.0242	482
323.15 K, 9570 kPa, x1 = 0.0481	650
